From patent US7550507B2, “2-(alpha-hydroxypentyl) benzoate and its preparation and use” (Institute of Materia Medica, Chinese Academy of Medical …, priority 2002, dated 2009)
Values joined by “and” are separate entries in the source; they are usually repeats but may differ in a detail not shown here. Equal entries are not always repeated. Marks after values point to notes of the source that are not given here.

What was measured:
[1] = tested on: rats of permanent MCAO; experiment: Infarction area after local cerebral ischemia (permanent MCAO) in rats, TTC staining; format: in vivo, male Wistar rats; settings: 24 hours after MCAO; for infarct area (weight percentage of the infarct tissue to the total cerebral tissue), X ± SD: 200 mg/kg p.o. with HCl (pH 1.6) 0.5 ml, 30 min prior to ischemia, control 26.99 ± 3.51
Protocol: Animal: male Wistar rats (250-280 g), from the Animal Center of the Chinese Academy of Medical Sciences.
dl-PHPB was dissolved in double distilled water.
Methods: Middle cerebral artery occlusion(MCAO): the rats were anesthetized by trichloroacetaldehyde monohydrate (350 mg/kg, ip). The left CCA was exposed through a middle neck incision and was carefully dissected free from surrounding nerves. The ICA and ECA were isolated. Then a 4 cm long 0.26 mm diameter nylon suture was inserted through proximal ECA into ICA for a length of […] from the bifurcation. The wounds were sutured and the rats were released. The room temperature was kept 24-25° C. during the test.
Animals were divided into two groups, 1) administration group: dl-PHPB (200 mg/kg) and HCl (pH 1.6) 0.5 ml (to mimic the acidic condition of the human stomach) were administrated per os (p.o) 30 minutes prior to ischemia; 2) Control group: double-distilled water and HCl (pH 1.6) 0.5 ml were administrated per os (p.o) 30 minutes prior to ischemia.
The anaesthetized animals were decapitated 24 hours after MCAO. Each brain were rapidly removed and kept in ice-cold saline (0-4° C.). After 10 minutes, the coronal section was sliced into five pieces after the removal of bulbus olfactus, cerebellum, and low brain stem. Upon cutting, the first cut was at the center point of the connection line of the polus anterior of cerebrum and the optic chiasm, the second cut was at the site of optic chiasm, the third was at the site of infundibulum stalk, and the fourth was between the infundibulum stalk and the caudal pole of posterior lobe. The sliced brain was kept in a 5 ml solution of TTC (4%) and K2HPO4 (1M), shaded and incubated at 37° C. for 30 minutes. During the incubation, slices were turned over every 7 -8 minutes. […] The infarcted tissue was separated from the normal tissue and weighed. The infarction area is calculated from the weight percentage of the infarct tissue to the total cerebral tissue.

[2] = tested on: platelet aggregation induced by ADP; experiment: Platelet aggregation induced by ADP in PRP of rats after oral administration (Born method); format: in vivo, male Wistar rats; settings: ADP 5 μmol/L
Protocol: Animal: male Wistar rats (260-280 g), from the Animal Center of the Chinese Academy of Medical Sciences.
Potassium 2-(1-hydroxypentyl)-benzoate, dl-PHPB),
ADP, obtained from Shanghai Institute of Biochemistry, Acedemia Sinica.
Equipment: Platelet Aggregometer (type: PAT-4A MEGURO-KU, TOKYO, JAPAN.
Groups: Animals were divided into four groups:
1) Control group: double-distilled water (400 mg/kg) was adimistrated per os (p.o) 30 minutes prior blood sampling;
2) Dl-PHPB (400 mg/kg) was administrated per os (p.o) 30 minutes prior to the blood sampling;
3) Dl-PHPB (400 mg/kg) was administrated per os (p.o) 60 minutes prior to the blood sampling;
4) Dl-PHPB (200 mg/kg) was administrated per os (p.o) 30 minutes prior to the blood sampling;
After oral administration of dl-PHPB, blood was drawn from the carotid of rats at the time points of 30 and 60 minutes, respectively. Platelet rich plasma (PRP) and platelet poor plasma (PPP) were prepared upon common procedure. According to the method described by of Born, PRP (200 μl) was put on the Platelet Aggregometer and pre-incubated at 37° C. for 5 minutes and then ADP with the final concentration of 5 μmol/L was added to induce platelet aggregation. The maximum aggregation was measured 5 minutes after the addition of ADP.

[3] = tested on: isolated hearts on rats; experiment: Cardiac arrhythmia induced by ischemia-reperfusion in isolated rat hearts (Langendorff perfusion); set-up: species or system male Wistar rats; settings: for Duration of Arrhythmia: 15 min ischemia, 30 min reperfusion, control 22.5 ± 9.5; for VT Duration: control 8.2 ± 7.9; for VF Incidence: control 33.3; for Spasmic VT Incidence: control 66.7; for VE Incidence: control 83.3; for VT Incidence: control 100
Protocol: Animals: male Wistar rats, 250-300 g, from the Animal Center of the Chinese Academy of Medical Sciences, randomly grouped.
Langendoff perfusion system;
XD-7100 ECG, Shanghai Medical Electronic Devices Factory
(1) remove the rat heart quickly after decapitation and put it into K—H solution at 4° C., fix the aorta to the perfusion system;
(2) perfuse the heart with K—H solution, 6-8 ml/min, 37±0.5° C., under the pressure of about 60 mmH2O;
(3) connect the two copper electrodes to the cardiac apex and the bottom of the right atria and record the cardiogram;
(4) perporate under the left anterior descending branch of the coronary artery with 3/0 line;
(5) perfuse the heart for 10 minutes and record the normal cardiogram;
(6) ligate the left anterior descending branch of the coronary artery to make myocardial ischemia for 15 minutes;
(7) nip the line and resume the perfusion, record the change of cardiogram for 30 minutes (mainly on VF and Spasmic VT);
(8) dissolve the dl-PHPB at pH 1.5 to a desired concentration, add it into K—H solution to do the experiments.

## CCCCC(O)c1ccccc1C(=O)[O-].[K+] (racemic) [dl-PHPB, Potassium dl-2-(α-hydroxypentyl) benzoate]
[1]; 200 mg/kg p.o. 30 min prior to ischemia, single rats
  infarct area, individual animals of treated group: 18.79% and 26.01% and 20.24% and 18.24% and 22.74% and 16.84% and 15.93%
[1]
  infarct area (weight percentage of the infarct tissue to the total cerebral tissue), X ± SD: 19.83 ± 3.53 %
[1]; listed as dl-PHBP
  infarct area (weight percentage of the infarct tissue to the total cerebral tissue), X ± SD: 19.83±3.53%
[2]; 200 mg/kg p.o., 30 min
  Rate of inhibition: 6.62%
[2]; 400 mg/kg p.o., 30 min
  Rate of inhibition: 19.31%
[2]; 400 mg/kg p.o., 60 min
  Rate of inhibition: 10.21%
[3]; 10^−4 mol/L in K-H solution
  Duration of Arrhythmia: 1.7 ± 0.6 min
[3]; 10^−4 mol/L
  VT Duration: 1.1 ± 0.6 min
  VF Incidence: 0%
  Spasmic VT Incidence: 0* %
  VE Incidence: 42.9%
  VT Incidence: 100%
[3]; 10^−5 mol/L in K-H solution
  Duration of Arrhythmia: 23.3 ± 5.8 min
[3]; 10^−5 mol/L
  VT Duration: 5.0 ± 6.5 min
  VF Incidence: 33.3%
  Spasmic VT Incidence: 50%
  VE Incidence: 66.7%
  VT Incidence: 100%
